We go through ten compounds from article PMC5518105, “Identification and characterization of the antiplasmodial activity of Hsp90 inhibitors” (Malaria Journal, 2017).

Like-named read-outs stand apart in the source and are kept apart here.

Test [1] addresses P. falciparum Grp94 (Plasmodium falciparum, UniProt Q8I0V4). Nature of the test: biochemical. The format is binding. On the procedure:
(§1) Full-length human recombinant HSP90α was purchased (Cayman Chemicals, MI), while the malaria recombinant parasite proteins were generated according to the following protocol. […] Growth at 37 °C continued until the OD600 reached ~1.0, whereupon the temperature was lowered to 18 °C and protein expression was induced by the addition of 1 mM isopropyl β-D-thiogalactopyranoside (IPTG). Overnight post-induction cells were collected by centrifugation and resuspended in binding buffer [50 mM Hepes pH 7.5, 500 mM NaCl, 1 mM benzamidine, and 1 mM phenylmethanesulfonyl fluoride (PMSF)]. The cells were lysed by adding chemical lysis buffer (2% CHAPS, 0.1 mg/mL lysozyme and 0.5 U/mL benzonase), the lysate was clarified by centrifugation. The supernatant was loaded on to a nickel-nitrilotriacetic acid column pre-equilibrated with binding buffer (50 mM Hepes pH 7.5, 500 mM NaCl). Following a wash step with binding buffer containing 5 mM imidazole, the bound protein was eluted with elution buffer (50 mM Hepes pH 7.5, 500 mM NaCl, 250 mM imidazole). The eluate was then loaded on to a 16/60 Superdex 200 size exclusion column pre-equilibrated with 50 mM Hepes pH 7.5 and 500 mM NaCl. Target protein-containing fractions were pooled and concentrated using centrifugal filter units (Amicon). The final protein products and samples for different steps in the purification procedures were evaluated in SDS-Page gels.
(§2) SPR measurements were performed on Biacore T200 instrument (GE Healthcare) at 25 °C. Purified P. falciparum Hsp90 and PfGRP94 N-terminal domain, and full-length human Hsp90α were immobilized on a CM5 sensorchip using NHS/EDC coupling following the manufacturer protocol to a level of <10,000 RUs, a reference surfaces without immobilized proteins served as a control for nonspecific binding and refractive index changes. Seven different concentrations of the ligands between 0.4 nM and 1 mM, were injected in triplicate over the sensor chip at 30 μL/min in random order. The running buffer was 10 mM HEPES, pH 7.4, 150 mM NaCl, 0.005% P20, 1% DMSO and 2 mM MgCl2. Buffer alone injections were used as blanks. The sensor surface was regenerated between injections with a short injection of a buffer 10 mM HEPES, pH 7.4, 150 mM NaCl, 0.005% P20 and 3 mM EDTA. The Biacore responses recorded during the 30 s of the injection were used to estimate the association constant (k on) and the 300 s after the injection were used to estimate the dissociation constant (k off). All kinetic constants were estimated using double subtracted sensorgrams using BiaEvaluation Software (GE Healthcare), the kinetic constants were used to calculate the dissociation constant (K d).

In test [2] the target is P. falciparum Hsp90 (Plasmodium falciparum, UniProt Q8IC05). Nature of the test: biochemical. The format is binding. On the procedure:
as §1, §2

The target in test [3] is T1, human Hsp90α (Homo sapiens, UniProt P07900).
T1 construct: Full-length human recombinant HSP90α was purchased; purchased Cayman Chemicals, MI
Nature of the test: Biacore SPR analysis, full-length human Hsp90α. In kind it is binding. The settings on record: for kon: read-out: ka. The method, then: as §1
as §2, with “Seven different concentrations of the ligands between 0.4 nM and 1 mM, were injected in triplicate over the sensor chip at 30 μL/min in random order.” left out

The test system of test [4] is P. falciparum chloroquine resistant W2. Nature of the test: Growth inhibition assay (SYBR Green I), W2. Particulars: Plasmodium falciparum, W2, 72 h.
Description: (§4) A 50% suspension of non-infected O positive erythrocytes was added every 2 days to adjust haematocrit to 5%. Parasite cultures were maintained at 37 °C in 5% O2 and 5% CO2 atmosphere with daily changes of culture media.
(§5) A synchronized P. falciparum culture, with over 80% ring forms, was used in the growth inhibition assay. […] A 190 μL aliquot of parasite culture was dispensed per well to microplates that were pre-dispensed with the compounds at various dilutions. […] Dilutions of Hsp90 inhibitors and DHA were prepared in water with a final concentration of DMSO below 0.05% (v/v).
(§6) The microplates were incubated at 37 °C in a controlled atmosphere (5% O2, 5% CO2 Nitrogen balanced) for 72 h. After incubation, the plates were subject to a freeze–thaw cycle (−80 °C) and the parasite growth was quantified by the SYBR Green I method as previously described [33]. Briefly, 100 µL of homogenized parasite culture was transferred into 96-well black plates. […] The plates were incubated at room temperature in darkness for 1 h.
(§7) Growth inhibition experiments were conducted at least three times per compound (biological replicates, n ≥ 3). The IC50 differences for each inhibitor between the two P. falciparum strains were compared with a t test.
Test [5] concerns P. falciparum chloroquine sensitive 3D7. Nature of the test: Growth inhibition assay (SYBR Green I), 3D7. The settings on record: Plasmodium falciparum, 3D7, 72 h.
Description: as §4, §5, §6, §7
In test [6] the test system is P. falciparum 3D7. Nature of the test: Recrudescence assay, 3D7. The format is cell-based, Plasmodium falciparum. The settings on record: 3D7, 100 nM for 48 h. The method, then:
(§3) The assay is a modification of the previously reported bulk recrudescence assay. […] […] After drug exposure, the medium containing the drug was removed and the cultures were washed twice with compound-free media, and resuspended in RPMI to adjust haematocrit to 5%. The medium was changed every day and red blood cells were added every 2 days to adjust the haematocrit. The cultures were monitored daily until they reached 10% parasitaemia, which represented the end point of the experiment. Culture parasitaemia was determined by scoring >2000 erythrocytes in Giemsa-stained thin blood films as parasitized or not. The median number of days to reach this level of parasitaemia was reported for all the experiments. All experiments were conducted in triplicate; each replica was conducted on different days. The differences in the recovery times between control cultures to those exposed to Hsp90 inhibitors were analysed using the non-parametric statistic Kruskal–Wallis test. If the overall test was significant then Dunn’s multiple comparison tests were used to identify significant differences among pair comparisons. The same statistical analysis was applied when comparing P. falciparum cultures exposed to DHA alone versus DHA in combination with Hsp90 inhibitors. […] The statistical analyses were performed with the software Prism v6 (GraphPad Software, San Diego, CA).

Test [7] deals with P. falciparum W2. Nature of the test: Recrudescence assay, W2. The format is cell-based, Plasmodium falciparum. The settings on record: W2, 100 nM for 48 h. On the procedure:
as §3

[8] abbreviates: Kd, SPR, 25 °C, calculated from kinetic constants.
[9] abbreviates: SPR, 25 °C, calculated from kinetic constants, read-out: Kd.

For orientation: Kd means the constant that tells how readily two partners part at equilibrium. In general, IC90 refers to the point of the concentration-response curve where the effect stands at 90%. A lower IC90 goes with greater potency. One may read the IC50 as the concentration needed to halve the response being measured.

Sequence of P. falciparum Grp94 (Q8I0V4 entry or part of it): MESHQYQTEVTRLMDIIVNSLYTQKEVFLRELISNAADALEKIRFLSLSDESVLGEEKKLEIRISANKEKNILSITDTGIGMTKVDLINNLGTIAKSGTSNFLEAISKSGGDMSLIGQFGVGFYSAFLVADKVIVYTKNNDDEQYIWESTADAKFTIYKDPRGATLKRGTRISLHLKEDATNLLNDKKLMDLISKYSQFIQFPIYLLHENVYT
Sequence of P. falciparum Hsp90 (Q8IC05 entry or part of it): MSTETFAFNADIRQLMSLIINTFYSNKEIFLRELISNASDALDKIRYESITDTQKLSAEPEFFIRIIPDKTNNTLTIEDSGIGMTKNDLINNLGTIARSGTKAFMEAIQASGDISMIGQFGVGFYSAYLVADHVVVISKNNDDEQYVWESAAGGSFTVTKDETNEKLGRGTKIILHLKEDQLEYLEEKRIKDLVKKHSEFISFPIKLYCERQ

As for `CC(C)c1cc(C(=O)N2Cc3ccc(CN4CCN(C)CC4)cc3C2)c(O)cc1O` [AT13387, (2,4-dihydroxy-5-isopropylphenyl)-[5-(4-methylpiperazin-1-ylmethyl)-1,3-dihydroisoindol-2-yl]methanone], the dissociation constant Kd is 2980 µM in test [1] and 46.5 µM in test [2] (setting [8]). For the same compound, the ka was determined as 216 M⁻¹ s⁻¹ in test [1] (SPR, 25 °C) and 212 M⁻¹ s⁻¹ in test [2] (SPR, 25 °C). For the same compound, the kd in test [1] (SPR, 25 °C) was determined as 0.643 s⁻¹; in test [2] (SPR, 25 °C), 0.009 s⁻¹; in test [3] (SPR, 25 °C) it was 0.348 s⁻¹. In test [3], the kon was 570 M⁻¹ s⁻¹. The IC90 turned out to be 5.37 µM in test [4] and 4.57 µM in test [5]. Also, the figures for the 50% inhibitory concentration (IC50) in test [4] (synchronized ring culture) and in test [5] (synchronized ring culture) were 0.531 µM and 0.665 µM, respectively.
On to `CCN(CC)CCCC(C)Nc1ccnc2cc(Cl)ccc12` (stereo not drawn) [CQ, Chloroquine], for which, in test [4], the half-maximal inhibitory concentration (IC50) stood at 0.129 µM and the IC90 was 0.39 µM. In test [5], this compound gave a concentration for half-maximal inhibition (IC50) of 0.0379 µM and an IC90 of 0.0672 µM.
For `CC1(C)CC(=O)c2c(C(F)(F)F)nn(-c3ccc(C(N)=O)c(N[C@H]4CC[C@H](OC(=O)CN)CC4)c3)c2C1` [SNX-5422], the IC90 in test [4] turned out to be 6.65 µM; in test [5], 4.32 µM. In addition, the figures for the IC50 in test [4] (synchronized ring culture) and in test [5] (synchronized ring culture) were 2.01 µM and 2.14 µM, respectively.
On to `C[C@H]1[C@@H](O)O[C@@H]2O[C@@]3(C)CC[C@H]4[C@H](C)CC[C@@H]1[C@@]24OO3` [DHA, dihydroartemisinin], for which the IC90 was found to be 0.0018 µM in test [4] and 0.0052 µM in test [5]. Moreover, the values for the IC50 in test [4] (synchronized ring culture) and in test [5] (synchronized ring culture) were 0.0005 µM and 0.0012 µM, respectively. Besides, the “days to recover to 10% parasitaemia (median)” value turned out to be 12 days in test [6] and 13 days in test [7].
`CC(C)NCCCn1c(Sc2cc(Cl)cc(Cl)c2)nc2c(N)ncnc21` [PUWS13]: the equilibrium dissociation constant (Kd) was 5600 µM in test [1] and 0.069 µM in test [2] (setting [8]). The ka is 149 M⁻¹ s⁻¹ in test [1] (SPR, 25 °C) and 598,000 1/Ms in test [2] (SPR, 25 °C). The kd in test [1] (SPR, 25 °C) came to 0.843 s⁻¹; in test [2] (SPR, 25 °C) it was 0.041 s⁻¹; in test [3] (SPR, 25 °C) it was 0.022 s⁻¹. Also, the kon in test [3] was determined as 811 M⁻¹ s⁻¹. Further, the 90% effect level in test [4] (IC90) was put at 9.06 µM. The IC50 is 3.88 µM in test [4] (synchronized ring culture) and 7 µM in test [5] (synchronized ring culture).
On to `CC(C)NCCCn1c(Sc2cc3c(cc2I)OCO3)nc2c(N)ncnc21` [PUH71], for which the ka in test [2] is reported as 356,000 1/Ms. Also, the kd in test [2] was found to be 0.005 s⁻¹; in test [3] it was 0.007 s⁻¹. For the same compound, the concentration for half-maximal inhibition (IC50) in test [4] worked out at 4.42 µM; in test [5], 3.92 µM. In test [4], this compound came in with an IC90 above 10 µM.
Take `COC1=C2C[C@@H](C)C[C@H](OC)[C@H](O)[C@@H](C)/C=C(\C)[C@H](OC(N)=O)[C@@H](OC)/C=C\C=C(/C)C(=O)NC(=CC1=O)C2=O` [Geldanamycin, geldanamycin]: in test [4], the half-maximal inhibitory concentration (IC50) came out at 0.2 µM and the 90% effect level (IC90) was put at 2.63 µM. Also, in test [5], the 50% inhibitory concentration (IC50) was 0.215 µM and it took 1.7 µM to reach the 90% level (IC90).
In the case of `CC(C)c1cc(-c2n[nH]c(=O)n2-c2ccc3c(ccn3C)c2)c(O)cc1O` [STA-9090], the Kd in test [1] worked out at 0.001 µM; in test [2] (Kd) it was 0.121 µM. The ka amounted to 1.7e+06 M⁻¹ s⁻¹ in test [1] (SPR, 25 °C) and 1.27 M⁻¹ s⁻¹ in test [2] (SPR, 25 °C). In addition, the kd in test [1] (SPR, 25 °C) is 0.003 s⁻¹; in test [2] (SPR, 25 °C), 1.5e-07 s⁻¹. Also, the IC90 in test [4] is above 10 µM; in test [5] it was 4.11 µM. Moreover, the values for the IC50 in test [4] (synchronized ring culture) and in test [5] (synchronized ring culture) were 1.29 µM and 1.25 µM, respectively.
Turning to `Nc1ncnc2c1ncn2[C@@H]1O[C@H](COP(=O)(O)OP(=O)(O)O)[C@@H](O)[C@H]1O` [ADP], the ka in test [1] (SPR, 25 °C) was 1360 M⁻¹ s⁻¹; in test [2] (SPR, 25 °C), 107 M⁻¹ s⁻¹; in test [3] (SPR, 25 °C), 109 M⁻¹ s⁻¹. Further, the kd in test [1] (SPR, 25 °C) stood at 0.003 s⁻¹; in test [2] (SPR, 25 °C) it was 0.002 s⁻¹; in test [3] (SPR, 25 °C), 0.006 s⁻¹. The dissociation constant Kd in test [1] (setting [9]) is 2.21 µM; in test [2] (setting [9]), 20.6 µM; in test [3] (SPR, 25 °C, calculated from kinetic constants) it was 63.8 µM.
As for `CC1(C)CC(=O)c2c(C(F)(F)F)nn(-c3ccc(C(N)=O)c(N[C@H]4CC[C@H](O)CC4)c3)c2C1` [SNX-2112], in test [1] (SPR, 25 °C), the ka is 4720 M⁻¹ s⁻¹ and the kd was 0.0006 s⁻¹. In test [2] (SPR, 25 °C), the ka is listed as 20,300 1/Ms and the kd is 0.003 s⁻¹. The IC90 in test [4] is above 10 µM. Also, the IC50 in test [4] (synchronized ring culture) turned out to be 1.7 µM.
